Test results reported in patent publication US12338220B2, “Antiviral pyrazolopiridinone compounds” (Novartis AG, priority 2019, dated 2025).
Like-named read-outs stand apart in the source and are kept apart here.

Key:
[1] = system: HCMV-Rluc virus (AD169 pp28-hRluc rUL131); experiment: CMV Luciferase Assay of Compounds 243-262 in ARPE-19 cells; format: cell-based; conditions: Human betaherpesvirus 5, AD169, ARPE-19, 72 h, read-out: CMV-Luc Cellular EC50 in ARPE-19
Protocol: CMV Luciferase Assay of Compounds 243-262.
Compounds 243-262 were tested in a luminescence assay as follows.
ARPE-19 cells were maintained in growth medium (DMEM/F12 Glutamax+10 fetal bovine serum (FBS)+PenStrep) and, before reaching full confluence, were transferred to a centrifuge tube and spun for 5 minutes at 1000 rpm. The cells were resuspended in assay medium (DMEM/F12 Glutamax+2% FBS+PenStrep) and counted. Cell density was adjusted to one million cells per milliliter and infected with HCMV-Rluc virus (AD169 pp28-hRluc rUL131; MOI 0.6) in a 50 ml conical tube for 2 hours while shaking. After dilution of the infectious suspension ten-fold (to 100,000 cells per milliliter), 8000 cells are directly plated in 384-well plates pre-spotted with the compound to be tested. The cells were incubated for 72 hours at 37 degrees Celsius. Cells were then placed at room temperature and allowed to equilibrate for 20 minutes before addition of the Renilla-Glo (Promega) reagent. After a 10-minute incubation at room temperature, luminescence was measured on a microplate reader.

HSV-polymerase = HSV-polymerase (Human herpesvirus 1 (strain 17) (HHV-1) (Human herpes simplex virus 1), UniProt P04293); experiment: biochemical
CMV = experiment: microbe, parasite or virus in culture; format: cell-based; conditions: Human betaherpesvirus 5, 72 h, read-out: CMV-Luc Cellular EC50, NN-NHDF cells, MOI 1, 72 hrs
CMV-polymerase = CMV-polymerase (Human cytomegalovirus (strain AD169) (HHV-5) (Human herpesvirus 5), UniProt P08546); experiment: biochemical
[2] = read-out: HSV-polymerase Biochemical IC50
[3] = read-out: CMV-polymerase Biochemical IC50
[4] = CMV-polymerase Biochemical IC50

SMILES | EC50 [1] | IC50 (HSV-polymerase; [2]) | EC50 (CMV) | IC50 (CMV-polymerase; [3]) | IC50 (HSV-polymerase) | IC50 (CMV-polymerase; [4])
Cn1nc(C(=O)NCc2ccc(C#N)cc2)c2c1C(=O)N(CC1(S(=O)(=O)Nc3cccc(CO)n3)CC1)CC2 [Example 243, N-(4-cyanobenzyl)-6-((1-(N-(6-(hydroxymethyl)pyridin-2-yl)sulfamoyl)cyclopropyl)methyl)-1-methyl-7-oxo-4,5,6,7-tetrahydro-1H-pyrazolo[3,4-c]pyridine-3-carboxamide] | 115 nM |  |  |  |  | 
Cn1nc(C2=NO[C@@H](c3ccc(C#N)cc3)C2)c2c1C(=O)N(CC1(S(=O)(=O)C(C)(C)CO)CC1)CC2 [Example 107, (R)-4-(3-(6-((1-((1-Hydroxy-2-methylpropan-2-yl)sulfonyl)cyclopropyl)methyl)-1-methyl-7-oxo-4,5,6,7-tetrahydro-1H-pyrazolo[3,4-c]pyridin-3-yl)-4,5-dihydroisoxazol-5-yl)benzonitrile] |  | > 25000 nM | > 10000 nM | 872 nM |  | 
Cn1nc(-c2cn(Cc3ccc(C#N)cc3)nn2)c2c1C(=O)N(CC1(S(=O)(=O)C(C)(C)CO)CC1)CC2 [Example 105, 4-((4-(6-((1-((1-Hydroxy-2-methylpropan-2-yl)sulfonyl)cyclopropyl)methyl)-1-methyl-7-oxo-4,5,6,7-tetrahydro-1H-pyrazolo[3,4-c]pyridin-3-yl)-1H-1,2,3-triazol-1-yl)methyl)benzonitrile] |  |  | 42 nM | 1 nM | 32 nM | 
Cn1nc(C(=O)NCc2ccc(C#N)cc2)c2c1C(=O)N(CC1(S(=O)(=O)C(C)(C)CNC=O)CC1)CC2 [Example 71, N-(4-Cyanobenzyl)-6-((1-((1-formamido-2-methylpropan-2-yl)sulfonyl)cyclopropyl)methyl)-1-methyl-7-oxo-4,5,6,7-tetrahydro-1H-pyrazolo[3,4-c]pyridine-3-carboxamide] |  |  | 95 nM |  | 33 nM | 1 nM
Cn1nc(C(=O)NCc2ccc(Cl)nc2)c2c1C(=O)N(CC1(S(=O)(=O)C3CC3)CC1)CC2 [Example 7, N-((6-Chloropyridin-3-yl)methyl)-6-((1-(cyclopropylsulfonyl)cyclopropyl)methyl)-1-methyl-7-oxo-4,5,6,7-tetrahydro-1H-pyrazolo[3,4-c]pyridine-3-carboxamide] |  |  | 534 nM |  | 861 nM | 56 nM
Cn1nc(C(=O)NCc2ccc(Cl)cc2)c2c1C(=O)N(CC1(S(=O)(=O)C(C)(C)COCCN)CC1)CC2 [Example 93, 6-((1-((1-(2-Aminoethoxy)-2-methylpropan-2-yl)sulfonyl)cyclopropyl)methyl)-N-(4-chlorobenzyl)-1-methyl-7-oxo-4,5,6,7-tetrahydro-1H-pyrazolo[3,4-c]pyridine-3-carboxamide] |  |  | 5 nM | 1 nM | 25 nM | 
Cn1nc(C(=O)NCc2ccc(C#N)cc2)c2c1C(=O)N(CC1(S(=O)(=O)C(C)(C)COC(F)CO)CC1)CC2 (single isomer, unassigned) [Example 80, (R)- or (S)-N-(4-Cyanobenzyl)-6-((1-((1-(1-fluoro-2-hydroxyethoxy)-2-methylpropan-2-yl)sulfonyl)cyclopropyl)methyl)-1-methyl-7-oxo-4,5,6,7-tetrahydro-1H-pyrazolo[3,4-c]pyridine-3-carboxamide] |  |  | 36 nM |  | 67 nM | 6 nM
Cn1nc(C(=O)NCc2ccc(C#N)cc2)c2c1C(=O)N(CC1(S(=O)(=O)C(C)(C)CCO)CC1)CC2 [Example 113, N-(4-Cyanobenzyl)-6-((1-((4-hydroxy-2-methylbutan-2-yl)sulfonyl)cyclopropyl)methyl)-1-methyl-7-oxo-4,5,6,7-tetrahydro-1H-pyrazolo[3,4-c]pyridine-3-carboxamide] |  |  | 36 nM | 3 nM | 38 nM | 
Cn1nc(C(=O)NCc2ccc(Cl)cc2)c2c1C(=O)N(CC1(S(=O)(=O)C3(COCCN)CC3)CC1)CC2 [Example 95, 6-((1-((1-((2-Aminoethoxy)methyl)cyclopropyl)sulfonyl)cyclopropyl)methyl)-N-(4-chlorobenzyl)-1-methyl-7-oxo-4,5,6,7-tetrahydro-1H-pyrazolo[3,4-c]pyridine-3-carboxamide] |  |  | 11 nM | 2 nM | 25 nM | 
CC(O)CC(C)(C)S(=O)(=O)C1(CN2CCc3c(C(=O)NCc4ccc(C#N)cc4)nn(C)c3C2=O)CC1 (single isomer, unassigned) [Example 115, (R)- or (S)-N-(4-Cyanobenzyl)-6-((1-((4-hydroxy-2-methylpentan-2-yl)sulfonyl)cyclopropyl)methyl)-1-methyl-7-oxo-4,5,6,7-tetrahydro-1H-pyrazolo[3,4-c]pyridine-3-carboxamide] |  |  | 59 nM |  | 71 nM | 3 nM
CC(O)Cn1nc(C(=O)NCc2ccc(C#N)cc2)c2c1C(=O)N(CC1(S(=O)(=O)C3CC3)CC1)CC2 (single isomer, unassigned) [Example 225, (R)- or (S)-N-(4-cyanobenzyl)-6-((1-(cyclopropylsulfonyl)cyclopropyl)methyl)-1-(2-hydroxypropyl)-7-oxo-4,5,6,7-tetrahydro-1H-pyrazolo[3,4-c]pyridine-3-carboxamide] |  |  | 63 nM |  | 90 nM | 4 nM
CC(=O)OCC(C)(C)S(=O)(=O)C1(CN2CCc3c(C(=O)NCc4ccc(C#N)cc4)nn(C)c3C2=O)CC1 [Example 57, 2-((1-((3-((4-Cyanobenzyl)carbamoyl)-1-methyl-7-oxo-4,5-dihydro-1H-pyrazolo[3,4-c]pyridin-6(7H)-yl)methyl)cyclopropyl)sulfonyl)-2-methylpropyl acetate] |  |  | 22 nM | 1 nM | 35 nM | 
Cn1nc(C(=O)NCc2ccc(C#N)cc2)c2c1C(=O)N(CC1(S(=O)(=O)C(F)F)CC1)CC2 [Example 38, N-(4-Cyanobenzyl)-6-((1-((difluoromethyl)sulfonyl)cyclopropyl)methyl)-1-methyl-7-oxo-4,5,6,7-tetrahydro-1H-pyrazolo[3,4-c]pyridine-3-carboxamide] |  |  | 607 nM | 14 nM | 784 nM | 
Cn1nc(C2=NO[C@H](c3ccc(C#N)cc3)C2)c2c1C(=O)N(CC1(S(=O)(=O)C(C)(C)CO)CC1)CC2 [Example 108, (S)-4-(3-(6-((1-((1-hydroxy-2-methylpropan-2-yl)sulfonyl)cyclopropyl)methyl)-1-methyl-7-oxo-4,5,6,7-tetrahydro-1H-pyrazolo[3,4-c]pyridin-3-yl)-4,5-dihydroisoxazol-5-yl)benzonitrile] |  | 47 nM | 32 nM | 1 nM |  | 
C[C@H](NC(=O)c1nn(C)c2c1CCN(CC1(S(=O)(=O)C(C)(CO)CO)CC1)C2=O)c1ccc(Cl)cc1 [Example 177, (S)-N-(1-(4-Chlorophenyl)ethyl)-6-((1-((1,3-dihydroxy-2-methylpropan-2-yl)sulfonyl)cyclopropyl)methyl)-1-methyl-7-oxo-4,5,6,7-tetrahydro-1H-pyrazolo[3,4-c]pyridine-3-carboxamide] |  |  | 168 nM | 4 nM | 122 nM | 
C[C@@H](NC(=O)c1nn(C)c2c1CCN(CC1(S(=O)(=O)C(C)(CO)CO)CC1)C2=O)c1ccc(Cl)cc1 [Example 178, (R)-N-(1-(4-Chlorophenyl)ethyl)-6-((1-((1,3-dihydroxy-2-methylpropan-2-yl)sulfonyl)cyclopropyl)methyl)-1-methyl-7-oxo-4,5,6,7-tetrahydro-1H-pyrazolo[3,4-c]pyridine-3-carboxamide] |  |  | 9720 nM | 240 nM | 8060 nM | 
COCC(C)(CO)S(=O)(=O)C1(CN2CCc3c(C(=O)NCc4ccc(C#N)cc4)nn(C)c3C2=O)CC1 (single isomer, unassigned) [Example 181, (R)- or (S)-N-(4-Cyanobenzyl)-6-((1-((1-hydroxy-3-methoxy-2-methylpropan-2-yl)sulfonyl)cyclopropyl)methyl)-1-methyl-7-oxo-4,5,6,7-tetrahydro-1H-pyrazolo[3,4-c]pyridine-3-carboxamide] |  |  | 77 nM |  | 69 nM | 4 nM
Cc1cc(NS(=O)(=O)C2(CN3CCc4c(C(=O)NCc5ccc(C#N)cc5)nn(C)c4C3=O)CC2)no1 [Example 165, N-(4-cyanobenzyl)-1-methyl-6-((1-(N-(5-methylisoxazol-3-yl)sulfamoyl)cyclopropyl)methyl)-7-oxo-4,5,6,7-tetrahydro-1H-pyrazolo[3,4-c]pyridine-3-carboxamide] |  |  | 136 nM | 1 nM | 14 nM | 
Cn1nc(C2=NO[C@@H](c3ccc(C#N)cc3)C2)c2c1C(=O)N(CC1(S(=O)(=O)C3CC3)CC1)CC2 [Example 32, (R)-4-(3-(6-((1-(Cyclopropylsulfonyl)cyclopropyl)methyl)-1-methyl-7-oxo-4,5,6,7-tetrahydro-1H-pyrazolo[3,4-c]pyridin-3-yl)-4,5-dihydroisoxazol-5-yl)benzonitrile] |  |  | 41 nM |  | 161 nM | 3 nM
